Assay results as given in patent US10100335B2, “Microbial production of branched medium chain alcohols, such as 4-methylpentanol” (Massachusetts Institute of Technology, priority 2013, dated 2018).
Converted amounts (≈) assume the structure as drawn.

Columns and labels:
[1] = biological target: T1, CarNi (Nocardia iowensis carboxylic acid reductase) (Nocardia iowensis, UniProt Q6RKB1); assay type: biochemical; conditions: for CarNi activity on aliphatic acid substrate: 13 straight and branched acids from C2-C8; for observed CarNi activity relative to activity on 4-methyl-valerate: in vitro, his-purified CarNi, 50 mM acid substrate
T1 construct: made in house; host or cells: E. coli BL21 Star (DE3) harboring pET/His-Car-RBS2-Sfp
Experimental: Strain M4 expressing car-sfp-ADH6 was fed five different acids at 10 mM initial concentration. Selectivity was determined by measuring normalized titers 5 hours post induction of gene expression. […] Initial rates were measured by monitoring NADPH consumption by measuring absorption at 340 nm.
Assays were devised to confirm activity on desired substrates in vitro and in vivo. In the first, N-terminal his-tagged CarNi was purified and assayed by UV absorption of NADPH with 13 straight and branched acids from C2-C8. […] A complementary in vivo assay was designed to examine the effectiveness of the Module 4 pairing. Butyrate, valerate. 3-methyl-valerate, 4-methyl-valerate, and hexanoate were fed to E. coli cultures expressing CarNi/ADH6Sc and conversion was monitored by sampling the culture media and liquid chromatography (LC).
Relative Activity Assay for Purified his-Car: An overnight culture of BL21 Star (DE3) (Invitrogen) harboring pET/His-Car-RBS2-Sfp was used as 10% (v/v) inoculum in 2 L of LB Broth. The culture was incubated at 30° C. and 250 rpm, and expression was induced using a final concentration of 1 mM IPTG at OD 0.6. Cells were harvested after 20 hours using centrifugation and resuspended in a buffer containing 50 mM Tris-HCl pH 8.0, 300 mM NaCl, and 10% glycerol. Cells were subsequently lysed using sonication. The supernatant was collected and applied to a column containing Ni-NTA resin (Qiagen). Affinity chromatography was performed using step-wise increasing concentrations of imidazole. Fractions containing purified His6-Car were dialyzed overnight at 4° C. into 50 mM Tris-HCl pH 7.5, 50 mM NaCl, 1 mM DTT, and 10% glycerol. Dialyzed enzyme was then flash frozen using liquid nitrogen and stored at −80° C. The activity of His-Car on various substrates was determined by changes in absorbance at 340 nm for up to 5 minutes in 96-well microplates using a plate reader (Tecan Infinite F200 Pro). Reactions were prepared as follows: 100 mM Tris-HCl pH 7.5, 10 mM MgCl2, 0.6 mM NADPH, 1 mM ATP, 224 nM His-Car, and 50 mM pH neutralized acid substrate. Changes in absorbance at 340 nm were detected using a filter. All substrates were assayed in triplicate. For KM and Vmax determinations, substrates were assayed at 5 different concentrations.

MG1655(DE3) endA recA = experiment: Toxicity of exogenously added alcohols on exponential growth rate; assay type: cell-based, E. coli; conditions: for reduction in growth rate: 10 mM alcohol in LB medium with 1.2% glucose
Experimental: The exponential growth rate was unchanged by 4-methyl-1-pentanol concentrations exceeding those observed in final titers (193±23 mg/L) for the high producing Strain M1Fj(IA)2I34. The highest 4-methyl-1-pentanol concentration (10 mM, 1022 mg/L) did lead to a reduction in growth rate of 40%. […] If higher titers of 4-methyl-1-pentanol are achieved, in situ gas stripping or simple phase separation could potentially be used to extract 4-methyl-1-pentanol from the culture medium (Lee 1994).
Duplicate 3 ml cultures in LB+1.2% glucose+alcohol were inoculated to an initial OD600 of 0.1. Cultures were contained in the same 50 ml screw-cap tubes used in production experiments. […] Growth was monitored by optical density and the growth rate was calculated from a linear regression of the natural log of the OD600 values for the 1.5, 2, and 2.5 hour post-inoculation time points.

[2] = cited from earlier work

T1 sequence (Q6RKB1 whole entry): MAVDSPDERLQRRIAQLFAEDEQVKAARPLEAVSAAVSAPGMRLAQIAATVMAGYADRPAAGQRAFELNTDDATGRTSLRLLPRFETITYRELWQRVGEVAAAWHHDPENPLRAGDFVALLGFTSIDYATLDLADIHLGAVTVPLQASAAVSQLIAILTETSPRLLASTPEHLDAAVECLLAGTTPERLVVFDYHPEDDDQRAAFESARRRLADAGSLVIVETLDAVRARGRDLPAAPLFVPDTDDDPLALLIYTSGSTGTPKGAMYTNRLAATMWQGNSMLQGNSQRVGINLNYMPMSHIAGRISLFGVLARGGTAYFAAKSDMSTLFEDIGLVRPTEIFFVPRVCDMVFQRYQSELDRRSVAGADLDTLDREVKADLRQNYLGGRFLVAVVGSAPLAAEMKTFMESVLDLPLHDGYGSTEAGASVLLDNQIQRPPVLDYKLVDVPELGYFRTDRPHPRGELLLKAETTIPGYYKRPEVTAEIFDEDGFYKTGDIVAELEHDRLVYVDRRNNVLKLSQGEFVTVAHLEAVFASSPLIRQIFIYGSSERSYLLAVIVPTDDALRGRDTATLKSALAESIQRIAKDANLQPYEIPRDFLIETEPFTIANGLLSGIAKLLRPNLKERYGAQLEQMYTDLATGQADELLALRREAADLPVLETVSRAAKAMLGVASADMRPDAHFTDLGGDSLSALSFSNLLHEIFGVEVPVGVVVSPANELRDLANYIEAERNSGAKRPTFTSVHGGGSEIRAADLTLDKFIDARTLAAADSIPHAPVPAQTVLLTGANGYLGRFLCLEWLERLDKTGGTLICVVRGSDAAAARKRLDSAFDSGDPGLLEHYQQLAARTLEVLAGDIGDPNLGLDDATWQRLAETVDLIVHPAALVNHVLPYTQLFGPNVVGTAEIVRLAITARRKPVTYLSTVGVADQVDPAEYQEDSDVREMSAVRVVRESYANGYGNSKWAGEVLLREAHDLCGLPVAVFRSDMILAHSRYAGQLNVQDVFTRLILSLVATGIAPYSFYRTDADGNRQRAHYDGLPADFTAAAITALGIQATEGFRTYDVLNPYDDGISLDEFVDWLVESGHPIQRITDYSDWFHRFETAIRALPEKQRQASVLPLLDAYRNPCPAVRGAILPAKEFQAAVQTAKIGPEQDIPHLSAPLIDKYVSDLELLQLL

| Structure (SMILES) | CarNi activity on aliphatic acid substrate [1] | reduction in growth rate (MG1655(DE3) endA recA) | effect on exponential growth rate (MG1655(DE3) endA recA; concentrations up to 5 mM) | observed CarNi activity relative to activity on 4-methyl-valerate [1] | other results |
| --- | --- | --- | --- | --- | --- |
| CCC(C)CCC(=O)O (stereo not drawn) [4-methyl-hexanoate] | highest activity |  |  |  |  |
| CC(C)CCCO [4-methyl-1-pentanol] |  | 40% | did not inhibit |  | effect on exponential growth rate (MG1655(DE3) endA recA; concentrations exceeding those observed in final titers (193±23 mg/L)): unchanged; solubility in water [2]: 7400 µg/mL (≈ 72.4 mM) |
| CC(=O)O [acetate] | reduced activity |  |  |  |  |
| CC(C)C(=O)O [isobutyrate] | reduced activity |  |  | 25% | Km ([1]; purified His-CarNi, initial rates by NADPH consumption at 340 nm): 78 ± 9 mM |
| CC(C)CO [isobutanol] |  | 10% | did not inhibit |  |  |
| CCCC(=O)O [butyrate] |  |  |  | 56% |  |
